Assay results taken from patent US20090143279A1 (priority 2007, published 2009).
Structures can show the parent of a compound that is named as a salt. Where two headings read alike, the source gives them in different places. Where a SMILES comes first, the peptide text is derived from it. The star is where a group is joined. Tfa = O=C(C(F)(F)F)*

Tests used:
OXPHOS gene expression = assay type: cell-based, mouse
reactive oxygen species = assay type: cell-based, mouse
cytochrome c = assay type: cell-based, mouse
nuOXPHOS transcripts = assay type: cell-based, mouse; details: for nucOXPHOS Z: Table 7, C2C12 myotubes, 48 h, composite Z-score
[1] = tested on: cellular dehydrogenase activity
mtOXPHOS transcripts = assay type: cell-based, mouse; details: for mito-OXPHOS Z: Table 7, C2C12 myotubes, 48 h, composite Z-score
[2] = tested on: mitochondrial membrane potential; assay type: cell-based, mouse
[3] = composite Z-score vs DMSO, Conc 15.08 μM
[4] = normalized composite Z-score vs mock-treated (DMSO) wells, Conc 20 μM
[5] = composite Z-score vs DMSO, Conc 20 μM
[6] = composite Z-score vs DMSO wells, Conc 20 μM
[7] = Conc 20 μM, normalized score vs mock-treated (DMSO) wells
[8] = composite Z-score vs mock-treated (DMSO) wells, concentration of each compound in μM
[9] = composite Z-score vs mock-treated (DMSO) wells, Conc 20 μM

Compound: COc1ccc(C[C@H]2NC[C@H](O)[C@H]2OC(C)=O)cc1 [Anisomycin, reference compound]
- GE-HTS (OXPHOS gene expression; [3]): −0.353
- ROS (reactive oxygen species; [3]): −2.958
- cyt c (cytochrome c; [3]): −2.841
- nucOXPHOS Z (nuOXPHOS transcripts): 1.26
- nucOX (nuOXPHOS transcripts; [3]): 1.256
- nuOXPHOS expression (nuOXPHOS transcripts; screen, relative to mtOXPHOS, in words): preferentially increase
- MTT [1, 3]: −4.623
- mito-OXPHOS Z (mtOXPHOS transcripts): −3.55
- mitoOX (mtOXPHOS transcripts; [3]): −3.545
- ΔΨm [2, 3]: −1.537
- Viability (C2C12 myotubes; [3]): −2.835

Compound: COc1cccc2c1C(=O)c1c(O)c3c(c(O)c1C2=O)C[C@@](O)(C(C)=O)C[C@@H]3O[C@H]1C[C@H](N)[C@H](O)[C@H](C)O1 [Daunorubicin, reference compound]
- GE-HTS (OXPHOS gene expression): −1.008
- ROS (reactive oxygen species): −2.398
- cyt c (cytochrome c): −3.722
- nucOX (nuOXPHOS transcripts): −2.094
- nucOXPHOS Z (nuOXPHOS transcripts): −2.09
- MTT [1]: −5.009
- mitoOX (mtOXPHOS transcripts): 1.373
- mito-OXPHOS Z (mtOXPHOS transcripts): 1.37
- ΔΨm [2]: −2.337
- Viability (C2C12 myotubes): −3.547

Compound: Cc1c(O)c(O)cc2c1CC=C1[C@@]2(C)CC[C@@]2(C)[C@@H]3C[C@](C)(C(=O)O)CC[C@]3(C)CC[C@]12C [Dihydrocelastrol, reference compound]
- GE-HTS (OXPHOS gene expression; [4]): −0.295
- ROS (reactive oxygen species; [4]): −3.065
- cyt c (cytochrome c; [4]): −4.583
- nucOXPHOS Z (nuOXPHOS transcripts): 2.18
- nucOX (nuOXPHOS transcripts; [4]): 2.183
- MTT [1, 4]: −5.524
- mito-OXPHOS Z (mtOXPHOS transcripts): −5.22
- mitoOX (mtOXPHOS transcripts; [4]): −5.217
- ΔΨm [2, 4]: −3.514
- Viability (C2C12 myotubes; [4]): −4.120

Compound: C[C@H](N)CO [I-alaninol]
- GE-HTS (OXPHOS gene expression; [5]): −0.652
- ROS (reactive oxygen species; [5]): 0.242
- cyt c (cytochrome c; [5]): 0.301
- nucOX (nuOXPHOS transcripts; [5]): −0.555
- MTT [1, 5]: −0.342
- mitoOX (mtOXPHOS transcripts; [5]): −0.738
- ΔΨm [2, 5]: −0.428
- Viability (C2C12 myotubes; [5]): −0.353

Compound: CC(C)C[C@H](N)C(=O)N[C@@H](C)C(=O)O [L-leucyl-L-alanine] (H-Leu-Ala-OH)
- GE-HTS (OXPHOS gene expression; [5]): 0.365
- ROS (reactive oxygen species; [5]): 0.301
- cyt c (cytochrome c; [5]): −0.861
- nucOX (nuOXPHOS transcripts; [5]): 0.465
- MTT [1, 5]: −0.320
- mitoOX (mtOXPHOS transcripts; [5]): 0.093
- ΔΨm [2, 5]: −0.307
- Viability (C2C12 myotubes; [5]): −0.600

Compound: O[C@H]1[C@H]2c3cc4c(cc3CN3CCC(=C[C@@H]1O)[C@H]23)OCO4 [Lycorine, reference compound]
- GE-HTS (OXPHOS gene expression; [5]): −1.119
- ROS (reactive oxygen species; [5]): −2.639
- cyt c (cytochrome c; [5]): −1.288
- nucOX (nuOXPHOS transcripts; [5]): 1.103
- MTT [1, 5]: −4.612
- mitoOX (mtOXPHOS transcripts; [5]): −5.387
- ΔΨm [2, 5]: −2.570
- Viability (C2C12 myotubes; [5]): −2.922

Compound: NCCNC(=O)c1ccc(Cl)cc1 [N-(2-aminoethyl)-4-chlorobenzamide]
- GE-HTS (OXPHOS gene expression; [6]): 0.065
- ROS (reactive oxygen species; [6]): 1.036
- cyt c (cytochrome c; [6]): −0.423
- nucOX (nuOXPHOS transcripts; [6]): 0.175
- MTT [1, 6]: −0.669
- mitoOX (mtOXPHOS transcripts; [6]): −0.205
- ΔΨm [2, 6]: −1.051
- Viability (C2C12 myotubes; [6]): −1.090

Compound: CC(=O)N[C@@H](CC(=O)O)C(=O)O [N-acetylaspartic acid]
- GE-HTS (composite Z-score) (OXPHOS gene expression; [7]): −0.670
- ROS (composite Z-score) (reactive oxygen species; [7]): 0.309
- cyt c (composite Z-score) (cytochrome c; [7]): 0.753
- nucOX (composite Z-score) (nuOXPHOS transcripts; [7]): −0.436
- MTT (composite Z-score) [1, 7]: −0.456
- mitoOX (composite Z-score) (mtOXPHOS transcripts; [7]): −1.046
- ΔΨm (composite Z-score) [2, 7]: −0.663
- Viability (composite Z-score) (C2C12 myotubes; [7]): −0.266

Compound: CC(=O)N[C@H]1[C@H]([C@@H](O)[C@@H](O)CO)O[C@@](O)(C(=O)O)C[C@@H]1O [N-acetylneuramic acid]
- GE-HTS (OXPHOS gene expression; [6]): 1.061
- ROS (reactive oxygen species; [6]): 0.063
- cyt c (cytochrome c; [6]): −0.254
- nucOX (nuOXPHOS transcripts; [6]): 1.111
- MTT [1, 6]: −0.118
- mitoOX (mtOXPHOS transcripts; [6]): 0.813
- ΔΨm [2, 6]: 0.053
- Viability (C2C12 myotubes; [6]): 1.009

Compound: CSCC[C@H](NC=O)C(=O)N[C@@H](CC(C)C)C(=O)N[C@@H](Cc1ccccc1)C(=O)O [N-formylmethionyl-leucylphenylalanine]
- GE-HTS (OXPHOS gene expression; [6]): −0.370
- ROS (reactive oxygen species; [6]): 1.017
- cyt c (cytochrome c; [6]): 0.374
- nucOX (nuOXPHOS transcripts; [6]): −0.517
- MTT [1, 6]: −1.240
- mitoOX (mtOXPHOS transcripts; [6]): −0.051
- ΔΨm [2, 6]: 0.476
- Viability (C2C12 myotubes; [6]): 0.354

Compound: CC[C@H](C)[C@H](NC)C(=O)O [N-methylisoleucine]
- GE-HTS (OXPHOS gene expression): 0.772
- ROS (reactive oxygen species): 0.300
- cyt c (cytochrome c): −0.451
- nucOX (nuOXPHOS transcripts): 0.676
- MTT [1]: 0.372
- mitoOX (mtOXPHOS transcripts): 0.850
- ΔΨm [2]: −0.210
- Viability (C2C12 myotubes): 1.026

Compound: COc1cc2c(cc1OC)-c1cc3ccc(OC)c(OC)c3c[n+]1CC2 [Palmatine, reference compound]
- GE-HTS (OXPHOS gene expression; [8]): 1.822
- ROS (reactive oxygen species; [8]): 0.511
- cyt c (cytochrome c; [8]): −0.084
- nucOXPHOS Z (nuOXPHOS transcripts): 1.64
- nucOX (nuOXPHOS transcripts; [8]): 1.636
- MTT [1, 8]: −1.222
- mito-OXPHOS Z (mtOXPHOS transcripts): 1.83
- mitoOX (mtOXPHOS transcripts; [8]): 1.833
- ΔΨm [2, 8]: −0.823
- Viability (C2C12 myotubes; [8]): −1.028

Compound: C=C1[C@@H]([C@@]2(C)[C@@H](OC(C)=O)CC(=O)O[C@](C)(COC(C)=O)[C@@H]2C(=O)OC)[C@@H](OC=O)[C@H](OC(=O)[C@H](O)[C@H](C)CC)[C@@]2(C)[C@H](c3ccoc3)CC(=O)[C@]12O [Prieurianin, reference compound]
- GE-HTS (OXPHOS gene expression; [9]): 2.020
- ROS (reactive oxygen species; [9]): −1.358
- cyt c (cytochrome c; [9]): −1.620
- nucOXPHOS Z (nuOXPHOS transcripts): 1.90
- nucOX (nuOXPHOS transcripts; [9]): 1.896
- MTT [1, 9]: −1.263
- mito-OXPHOS Z (mtOXPHOS transcripts): 1.93
- mitoOX (mtOXPHOS transcripts; [9]): 1.931
- ΔΨm [2, 9]: 1.108
- Viability (C2C12 myotubes; [9]): −0.894

Compound: COc1ccc(C[C@H](N)C(=O)N[C@H]2[C@@H](O)[C@H](n3cnc4c(N(C)C)ncnc43)O[C@@H]2CO)cc1 [Puromycin, reference compound]
- GE-HTS (OXPHOS gene expression; [5]): −3.348
- ROS (reactive oxygen species; [5]): −2.665
- cyt c (cytochrome c; [5]): −5.573
- nucOXPHOS Z (nuOXPHOS transcripts): −2.80
- nucOX (nuOXPHOS transcripts; [5]): −4.017
- MTT [1, 5]: −5.624
- mito-OXPHOS Z (mtOXPHOS transcripts): 1.24
- mitoOX (mtOXPHOS transcripts; [5]): −1.331
- ΔΨm [2, 5]: −3.989
- Viability (C2C12 myotubes; [5]): −5.718

Compound: N[C@@H](CCC(=O)N[C@@H](CSC(CC(=O)O)C(=O)O)C(=O)NCC(=O)O)C(=O)O (stereo partly drawn) [S-(1,2-dicarboxyethyl)glutathione]
- GE-HTS (OXPHOS gene expression; [5]): −0.364
- ROS (reactive oxygen species; [5]): 0.258
- cyt c (cytochrome c; [5]): −0.411
- nucOX (nuOXPHOS transcripts; [5]): −0.400
- MTT [1, 5]: −0.635
- mitoOX (mtOXPHOS transcripts; [5]): −0.219
- ΔΨm [2, 5]: 0.038
- Viability (C2C12 myotubes; [5]): −0.049

Compound: CC(=O)O.CSC(=N)NCCC[C@H](N)C(=O)O [S-methyl-L-thiocitrulline acetate]
- GE-HTS (OXPHOS gene expression; [8]): 0.291
- ROS (reactive oxygen species; [8]): 0.052
- cyt c (cytochrome c; [8]): 0.533
- nucOX (nuOXPHOS transcripts; [8]): 0.325
- MTT [1, 8]: −0.262
- mitoOX (mtOXPHOS transcripts; [8]): 0.173
- ΔΨm [2, 8]: −0.542
- Viability (C2C12 myotubes; [8]): 0.613

Compound: CC(C)[C@H](NC(=O)[C@H](Cc1ccc(O)cc1)NC(=O)[C@@H](NC(=O)C(F)(F)F)C(C)C)C(=O)O [TFA-Val-Tyr-Val-OH] (Tfa-Val-Tyr-Val-OH)
- GE-HTS (OXPHOS gene expression; [8]): 0.294
- ROS (reactive oxygen species; [8]): 0.471
- cyt c (cytochrome c; [8]): −0.785
- nucOX (nuOXPHOS transcripts; [8]): 0.415
- MTT [1, 8]: −1.019
- mitoOX (mtOXPHOS transcripts; [8]): −0.008
- ΔΨm [2, 8]: −0.510
- Viability (C2C12 myotubes; [8]): −0.143

Compound: C=C/C(C)=C\CC1C(C)(O)CCC2C(C)(C)CCCC21C (stereo not shown) [abienol]
- GE-HTS (OXPHOS gene expression; [4]): 0.498
- ROS (reactive oxygen species; [4]): 2.467
- cyt c (cytochrome c; [4]): 0.211
- nucOX (nuOXPHOS transcripts; [4]): 0.091
- MTT [1, 4]: 0.338
- mitoOX (mtOXPHOS transcripts; [4]): 1.214
- ΔΨm [2, 4]: 0.334
- Viability (C2C12 myotubes; [4]): −0.199
